In patent publication US20060121449A1, “Method for selection of compounds which inhibit clonal cell growth and use thereof” (priority 2002, published 2006):
“Also recorded” adds a separate entry of the source.

Columns and labels:
[1] = system: polyoma virus transformed BHK21/c13 cells, line S100T1; assay: Collocation inhibition test: clonal growth in sparsely and densely seeded areas of a cell density gradient of S100T1 cells in soft agar (Exp 13, 17, 19-26); settings: for Significance: Exp 17 day 14; for Clonal growth, H high density area of cell gradient, High / Clonal growth, L low density area of cell gradient, High / Clonal growth, H high density area of cell gradient, Low / Clonal growth, L low density area of cell gradient, Low / Clonal growth, H high density area of cell gradient, Medium / Clonal growth, L low density area of cell gradient, Medium / Effect on cell cloning in soft agar: preliminary results; for Clonal growth, H high density area of cell gradient, High / Clonal growth, L low density area of cell gradient, High / Clonal growth, H high density area of cell gradient, Low / Clonal growth, L low density area of cell gradient, Low / Clonal growth, H high density area of cell gradient, Medium / Clonal growth, L low density area of cell gradient, Medium: Exp 13-18, 21-26; for Effect on cell cloning in soft agar: in words; for Resulting clonal growth of treated cultures: Experiment 26, read after 24 hours;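 for Clonal growth, H high density area of cell gradient, High: grades rise with clonal growth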;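 for Clonal growth, H high density area of cell gradient, Low: grades rise with clonal growth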;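 for Clonal growth, H high density area of cell gradient, Medium: grades rise with clonal growth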;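 for Clonal growth, L low density area of cell gradient, High: grades rise with clonal growth and minus or plus-minus means none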;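 for Clonal growth, L low density area of cell gradient, Low: grades rise with clonal growth and minus or plus-minus means none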;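 for Clonal growth, L low density area of cell gradient, Medium: grades rise with clonal growth and minus or plus-minus means none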;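 for all read-outs here: soft agar cultures in 24-well plates with a cell density gradient in the top layer, compounds applied from DMSO stocks, clonal growth scored in sparse versus dense areas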
Experimental: The cells should be grown in a top agar layer to avoid growth on the bottom surface. […] Both densely seeded and sparsely seeded areas were photographed.
Cells: The polyoma virus transformed offspring of BHK21/c13, S100T1, was grown on 75 cm^2 flasks on Eagles medium with 5% foetal calf serum. […] Foetal calf serum (0.7 ml) was added to each harvest. After low speed centrifugation the supernatant was discarded and the cells were dispersed in 1 ml FBS.
The concentration of ultra low gelling temperature agarose (Sigma) of the top agar layer with cells was also 0.8%. […] The addition of cells was performed at the same side of the wells in order to create similar cell density gradients. Finally the top layer agar was consolidated in the refrigerator.
After that it was incubated at 37 degrees in 5% CO2 atmosphere.
Agar cultures were prepared in Falcon 24 well tissue culture plate. Each well contained two agar layers of 0.3 ml.
Agar cultures were prepared in wells of Falcon 24 well tissue culture plate. Each contained two agar layers of 0.3 ml. […] The medium contained Eagles MEM and 10% foetal bovine serum (FBS).
The compounds were first solved in DMSO in 20 mM concentration and then diluted in medium. The top layer needed 60-90 minutes in the refrigerator for solidification before incubation in 37° C. with 5% CO2 atmosphere.
In this experiment the inhibitor was added to the bottom layer in order to get an easier way for making the cell density gradient. One side of the Falcon 24 well plate was elevated 12 degrees in the refrigerator for 60-90 minutes to solidify the bottom layer in an oblique position When then solidifying the cell containing top soft agar layer in horizontal position, the cell gradient constantly became good across the well. […] Another 90 minutes were spent in the refrigerator to consolidate the soft agar layer with cells in a horizontal position. Both layers contained 0.8% agarose, Eagles MEM and 10% FBS.
Tilting the plate 12 degrees when solidifying the bottom layer with the drug and casting the top layer with cells horizontally made a stable cell gradient.
The indicated compounds were added to soft agar cultures of the polyoma virus transformed cell line S100T1 of BHK21/c13 cells (Table 1). Agar cultures were prepared in wells of a Falcon 24 well tissue culture plate. The wells contained two agar layers of 0.3 ml. […] The bottom medium was identical, but without cells.
The compounds were first solved in DMSO in 20 mM concentration and then diluted in bottom medium. The agar layers needed 60-90 minutes in the refrigerator for consolidation before incubation at 37° C. in 5% CO2 atmosphere.

[2] = system: polyoma virus transformed BHK21/c13 cells, clone S100T1; assay: Clonal test: clonal growth of S100T1 cells in soft agar (Exp 2, 4, 6, 15, 16); type: cell-based, hamster
Experimental: The clonal test comprises: • 1. seeding cells in soft agar optionally containing growth factor(s); • 2. handling or incubation of special gels (e.g. ultra low gelling temperature agarose), including the production of cell density gradients. • 3. incubating in suitable temperature and atmosphere and; • 4. regular monitoring of the cells and development of clones.
The clonal test can be directed in fluid medium or in soft agar medium. Usually only transformed cells will form clones in soft agar.
After seeding and mixing, the tubes were placed in the refrigerator for about 1 hour to consolidate the ultra low melting point agarose.
120000 S100T1 cells of a polyoma virus transformed BHK21/c13 cell line, were seeded in 1 ml soft agar medium in Falcon 50 ml centrifuge tubes. […] On the top of the agar layer 0.5 ml fluid medium was added.
Agar cultures were prepared in wells of 24 well Falcon tissue culture plate. […] Insulin (Actrapid, Novo) was added in a concentration of 0.1 i.u./ml to BHK21/c13 cell cultures only.
The cells were all single cells. Each well received 32000 cells (Table 4). Plate: 24 wells Falcon tissue culture plate received a bottom layer composed as in Table 3:
The cells were all single cells.
The wells contained two layers, each of 0.3 ml agar.
The agarose was added to double distilled water and solved by heating in micro oven.

[3] = Exp 15, 32000 S100T1 cells/well

## C[S+](C)[O-] [DMSO]
[1]; Exp 17
  Effect on formation of clones at 4.7%: inhibited formation of clones, but not completely
  Effect on formation of clones at 29.2 μl/700 μl or 4%: inhibited formation of clones, but not completely
[1]; Exp 17, a: close to densely seeded cell areas, Low: Colchicine 0.1, Podophyllotoxin 0.3, Etoposide 20, 4-OH—OPB 0.67 μM in wells, DMSO 1.16 μl
  Clonal growth, results read on the day 14: ++
[1]; Exp 17, a: close to densely seeded cell areas, Medium: Colchicine 0.3, Podophyllotoxin 0.9, Etoposide 60, 4-OH—OPB 2 μM in wells, DMSO 6.8 μl
  Clonal growth, results read on the day 14: ++
[1]; Exp 17, b: sparsely seeded areas in the same agar culture, Low: Colchicine 0.1, Podophyllotoxin 0.3, Etoposide 20, 4-OH—OPB 0.67 μM in wells, DMSO 1.16 μl
  Clonal growth, results read on the day 14: ++
[1]; Exp 17, soft agar cultures of S100T1
  Concentration up to which growth was approximately unaffected: up to 1%
[1]; Exp 19
  Growth inhibition at concentrations administered along with the test substances: did not show growth inhibition
[1]; a: close to densely seeded cell areas, High: Colchicine 1, Podophyllotoxin 3, Etoposide 200, 4-OH—OPB 6.7 μM in wells, DMSO 29.2 μl
  Significance: Probably
[1]; a: close to densely seeded cell areas, Low: Colchicine 0.1, Podophyllotoxin 0.3, Etoposide 20, 4-OH—OPB 0.67 μM in wells, DMSO 1.16 μl
  Significance: No
[1]; a: close to densely seeded cell areas, Medium: Colchicine 0.3, Podophyllotoxin 0.9, Etoposide 60, 4-OH—OPB 2 μM in wells, DMSO 6.8 μl
  Significance: No
[1]; b: sparsely seeded areas, High: Colchicine 1, Podophyllotoxin 3, Etoposide 200, 4-OH—OPB 6.7 μM in wells, DMSO 29.2 μl
  Significance: Yes
[1]; b: sparsely seeded areas, Low: Colchicine 0.1, Podophyllotoxin 0.3, Etoposide 20, 4-OH—OPB 0.67 μM in wells, DMSO 1.16 μl
  Significance: No
[1]; b: sparsely seeded areas, Medium: Colchicine 0.3, Podophyllotoxin 0.9, Etoposide 60, 4-OH—OPB 2 μM in wells, DMSO 6.8 μl
  Significance: No

## O=C1NC(=O)C(c2ccccc2)(c2ccccc2)N1 [Diphenhydantoin]
[2]; [3]
  Effect on clonal growth at 10-100 μM: did not inhibit clonal growth significantly

## O=c1[nH]cc(F)c(=O)[nH]1 [Fluorouracil, reference compound]
[1]; Exp 21, 117000 S100T1 cells/well
  Effect on clonal growth and toxicity: relatively moderate inhibition of clonal growth and low toxicity independent of dosage
[1]; Exp 21, 117000 cells per well, Low concentration (see figure), H: area with high cell density
  Clonal growth: ++
[1]; Exp 21, High concentration, H: area with high cell density
  Clonal growth: ++
[1]; Exp 21, High concentration, L: area with low cell density
  Clonal growth: +
[1]; Exp 21, Low concentration, L: area with low cell density
  Clonal growth: +
[1]; Exp 21, Medium concentration, H: area with high cell density
  Clonal growth: ++
[1]; Exp 21, Medium concentration, L: area with low cell density
  Clonal growth: +
[1]; high concentration
  Clonal growth, H high density area of cell gradient, High: ++
  Clonal growth, L low density area of cell gradient, High: +
[1]; low concentration
  Clonal growth, H high density area of cell gradient, Low: ++
  Clonal growth, L low density area of cell gradient, Low: +
[1]; medium concentration
  Clonal growth, H high density area of cell gradient, Medium: ++
  Clonal growth, L low density area of cell gradient, Medium: +
[1]
  Effect on cell cloning in soft agar: Rel. moderate inhibition of clonal growth

## CC(C)Cc1ccc(C(C)C(=O)O)cc1 (stereo not shown) [Ibuprofen]
[2]; [3]
  Effect on clonal growth at 100 μM: insignificant inhibition
[2]; Exp 16, read after 14 days, Ibuprofen No 8, ca. 223 μM
  Significance of results: possible
[2]; Exp 16 day 14, Ibuprofen No 8, 215 μM
  Significance: possible
[2]; Exp 16 day 14, Ibuprofen No 8, 215 μM in wells
  Growth: (+)
[2]; Exp 16 day 14, Ibuprofen No 8, 464 μM in wells
  Growth: (+))
[2]; Exp 16 day 14, Ibuprofen No 8, 464 μM, doubtful because the solvent DMSO might be inhibiting
  Significance: doubtful*
[2]; Exp 16 day 21, Ibuprofen No 8, 215 μM
  Significance: probable
[2]; Exp 16 day 21, Ibuprofen No 8, 215 μM in wells
  Growth: (+))
[2]; Exp 16 day 21, Ibuprofen No 8, 464 μM in wells
  Growth: (+))
[2]; Exp 16 day 21, Ibuprofen No 8, 464 μM, *see conclusion (DMSO)
  Significance: doubtful*
[2]; S100T1 in soft agar
  Anti-clonal effect, summary of Exp 15: showed possible clonal inhibition at low
  Anti-clonal effect, summary of Exp 16: Ibuprofen and Naproxen possibly inhibited and Acetyl

## COc1c(C)c2c(c(O)c1C/C=C(\C)CCC(=O)O)C(=O)OC2 [Mycophenolic ac]
[1]; Exp 19, high concentration, H: high cell density part of the gradient
  Clonal growth after 48 hours incubation: (+)
[1]; Exp 19, high concentration, L: low cell density part of the gradient
  Clonal growth after 48 hours incubation: (+)
[1]; Exp 19, low concentration (exact conc. only in figure), H: high cell density part of the gradient
  Clonal growth after 48 hours incubation: (+)
[1]; Exp 19, low concentration, L: low cell density part of the gradient
  Clonal growth after 48 hours incubation: (+)
[1]; Exp 19, medium concentration, H: high cell density part of the gradient
  Clonal growth after 48 hours incubation: (+)
[1]; Exp 19, medium concentration, L: low cell density part of the gradient
  Clonal growth after 48 hours incubation: (+)

## COc1c(C)c2c(c(O)c1C/C=C(\C)CCC(=O)O)C(=O)OC2 [Mycophenolic acid, reference compound]
[1]; high concentration
  Clonal growth, H high density area of cell gradient, High: (+)
  Clonal growth, L low density area of cell gradient, High: (+)
[1]; low concentration
  Clonal growth, H high density area of cell gradient, Low: (+)
  Clonal growth, L low density area of cell gradient, Low: (+)
[1]; medium concentration
  Clonal growth, H high density area of cell gradient, Medium: (+)
  Clonal growth, L low density area of cell gradient, Medium: (+)
[1]
  Effect on cell cloning in soft agar: Less growth in both high and low

## CC1=C(CC(=O)O)c2cc(F)ccc2/C1=C\c1ccc([S+](C)[O-])cc1 (stereo not shown) [Sulindac, reference compound]
[1]; Exp 26
  Effect on clonal growth of sparsely seeded cells, low dose: clone-inducing effect
[1]; Exp 26, 172800 S100T1 cells/well
  Effect on clonal growth, high dose: weak anti-cloning effect on sparsely seeded cells; also recorded: abrogated this effect. It is considered logic
[1]; H: area with high cell density, High concentration
  Resulting clonal growth of treated cultures: ++
[1]; H: area with high cell density, Low concentration
  Resulting clonal growth of treated cultures: ++(+)
[1]; H: area with high cell density, Medium concentration
  Resulting clonal growth of treated cultures: ++
[1]; L: area with low cell density, High concentration
  Resulting clonal growth of treated cultures: +
[1]; L: area with low cell density, Low concentration
  Resulting clonal growth of treated cultures: +++
[1]; L: area with low cell density, Medium concentration
  Resulting clonal growth of treated cultures: ++
[1]; high concentration
  Clonal growth, H high density area of cell gradient, High: ++
  Clonal growth, L low density area of cell gradient, High: +
[1]; low concentration
  Clonal growth, H high density area of cell gradient, Low: ++(+)
  Clonal growth, L low density area of cell gradient, Low: +++
[1]; medium concentration
  Clonal growth, H high density area of cell gradient, Medium: ++
  Clonal growth, L low density area of cell gradient, Medium: ++
[1]
  Effect on cell cloning in soft agar: Possible clonal stimulation at low

## CN(Cc1cnc2nc(N)nc(N)c2n1)c1ccc(C(=O)N[C@@H](CCC(=O)O)C(=O)O)cc1 [methotrexate, Methotrexate, reference compound]
[1]; Exp 23, 180000 S100T1 cells/well
  Effect on growth: did not show significant growth inhibition at all
[1]; Experiment 23, A (area with high cell density), High concentration, 48 hours
  Clonal growth: +(+)
[1]; Experiment 23, A (area with high cell density), Low concentration, 48 hours
  Clonal growth: ++
[1]; Experiment 23, A (area with high cell density), Medium concentration, 48 hours
  Clonal growth: ++
[1]; Experiment 23, B (area with low cell density), High concentration, 48 hours
  Clonal growth: +
[1]; Experiment 23, B (area with low cell density), Low concentration, 48 hours
  Clonal growth: +
[1]; Experiment 23, B (area with low cell density), Medium concentration, 48 hours
  Clonal growth: +(+)

## Somatotropin: growth hormone tested for clonal stimulation
[1]; Exp 25, 48 hours incubation
  Effect on clonal growth: seemed to create some large colonies
[1]; Experiment 25, H: area with high cell density, High concentration, after 48 hours incubation
  Clonal growth: ++
[1]; Experiment 25, H: area with high cell density, Low concentration, after 48 hours incubation
  Clonal growth: ++(+)
[1]; Experiment 25, H: area with high cell density, Medium concentration, after 48 hours incubation
  Clonal growth: ++(+)
[1]; Experiment 25, L: area with low cell density, High concentration, after 48 hours incubation
  Clonal growth: ++
[1]; Experiment 25, L: area with low cell density, Low concentration, after 48 hours incubation
  Clonal growth: ++(+)
[1]; Experiment 25, L: area with low cell density, Medium concentration, after 48 hours incubation
  Clonal growth: ++(+)
[1]; high concentration
  Clonal growth, H high density area of cell gradient, High: ++
  Clonal growth, L low density area of cell gradient, High: ++
[1]; low concentration
  Clonal growth, H high density area of cell gradient, Low: ++(+)
  Clonal growth, L low density area of cell gradient, Low: ++(+)
[1]; medium concentration
  Clonal growth, H high density area of cell gradient, Medium: ++(+)
  Clonal growth, L low density area of cell gradient, Medium: ++(+)
